In ChEMBL document CHEMBL6083193, “Advancing drug discovery: Thiadiazole derivatives as multifaceted agents in medicinal chemistry and pharmacology” (Bioorg Med Chem, 2024):
pIC50: −log10 of the molar value.

Tests used:
A549 [1] = test: Cytotoxicity against human A549 cells assessed as reduction in cell viability incubated for 24 hrs by MTT assay; type: functional, cell-based; details: A549, 24 h
MCF7 [2] = test: Cytotoxicity against human MCF7 cells assessed as reduction in cell viability incubated for 24 hrs by MTT assay; type: functional, cell-based; details: MCF7, 24 h
A549 [3] = test: Cytotoxicity against human A549 cells by MTT assay; type: functional, cell-based
[4] = biological target: Epidermal growth factor receptor (Homo sapiens, UniProt P00533); test: Inhibition of EGFR (unknown origin)
Sequence of Epidermal growth factor receptor (P00533 whole entry): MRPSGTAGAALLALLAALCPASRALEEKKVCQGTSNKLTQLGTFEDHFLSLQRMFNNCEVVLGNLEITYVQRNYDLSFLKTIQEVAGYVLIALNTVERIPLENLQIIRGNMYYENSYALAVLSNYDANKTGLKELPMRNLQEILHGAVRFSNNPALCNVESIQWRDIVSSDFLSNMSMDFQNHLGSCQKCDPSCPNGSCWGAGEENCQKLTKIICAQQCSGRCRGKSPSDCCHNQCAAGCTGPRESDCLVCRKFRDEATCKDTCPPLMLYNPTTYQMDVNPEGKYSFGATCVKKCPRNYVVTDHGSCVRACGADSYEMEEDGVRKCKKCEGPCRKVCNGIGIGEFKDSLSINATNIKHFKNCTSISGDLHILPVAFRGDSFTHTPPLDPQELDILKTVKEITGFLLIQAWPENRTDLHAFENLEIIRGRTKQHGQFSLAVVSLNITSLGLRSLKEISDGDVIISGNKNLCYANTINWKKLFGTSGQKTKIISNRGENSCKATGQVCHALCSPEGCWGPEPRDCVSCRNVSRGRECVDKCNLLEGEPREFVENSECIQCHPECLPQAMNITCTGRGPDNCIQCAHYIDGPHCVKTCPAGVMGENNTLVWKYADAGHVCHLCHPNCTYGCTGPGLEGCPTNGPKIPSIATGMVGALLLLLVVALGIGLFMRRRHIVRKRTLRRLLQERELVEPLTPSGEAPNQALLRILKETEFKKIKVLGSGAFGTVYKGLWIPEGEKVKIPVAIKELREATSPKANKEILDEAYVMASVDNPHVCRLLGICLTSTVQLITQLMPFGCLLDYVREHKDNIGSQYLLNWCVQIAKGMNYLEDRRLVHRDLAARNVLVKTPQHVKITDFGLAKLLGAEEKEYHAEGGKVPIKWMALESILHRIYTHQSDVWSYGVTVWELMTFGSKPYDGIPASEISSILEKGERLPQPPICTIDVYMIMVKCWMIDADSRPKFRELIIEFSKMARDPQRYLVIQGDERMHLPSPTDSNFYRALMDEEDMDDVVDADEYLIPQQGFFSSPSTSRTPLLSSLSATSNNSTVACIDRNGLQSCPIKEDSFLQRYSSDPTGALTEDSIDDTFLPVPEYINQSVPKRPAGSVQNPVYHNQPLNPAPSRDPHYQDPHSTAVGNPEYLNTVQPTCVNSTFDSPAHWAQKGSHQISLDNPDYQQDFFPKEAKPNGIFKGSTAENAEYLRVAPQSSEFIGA

A549 [5] = test: Cytotoxicity against human A549 cells assessed as reduction in cell growth; type: functional, cell-based
Trypanosoma brucei = test: Antiparasitic activity against blood stream form Trypanosoma brucei assessed as parasitic growth inhibition at 10 uM by resazurin dye based fluorescence analysis relative to control; type: functional; parameters: scale not given: the % may be the effect or the level left
A2780 [6] = test: Cytotoxicity against human A2780 cells assessed as reduction in cell viability incubated for 72 hrs by CCK-8 assay; type: functional, cell-based; details: A2780, 72 h
A2780 [7] = test: Cytotoxicity against human A2780 cells assessed as increase in LDH activity; type: functional, cell-based
A2780 [8] = test: Induction of apoptosis in human A2780 cells assessed as caspase3/7 activation; type: functional, cell-based
MCF7 [9] = test: Anticancer activity against human MCF7 cells by MTT assay; type: functional, cell-based

Row | Compound | pIC50 (A549 [1]) | pIC50 (MCF7 [2]) | pIC50 (A549 [5]) | Activity (Trypanosoma brucei) [%] | other results
1 | O=C(CSc1nnc(Nc2ccccc2)s1)N1N=C(c2ccccc2)CC1c1ccc([N+](=O)[O-])cc1 (configuration not stated) | 5.81 | 4.80 | 5.00 | – | pIC50 (A549 [3]): 4.32; pIC50 [4]: 8.70
2 | Cc1nc[nH]c1-c1nnc(Nc2ccccc2F)s1 | – | – | – | 64.81 | –
3 | O=C1C[C@H](n2ccsc2=S)[C@H]2CO[C@@H]1O2 | – | – | – | – | pIC50 (A2780 [6]): 4.32; pIC50 (A2780 [7]): 4.21; pIC50 (A2780 [8]): 6.00; pIC50 (MCF7 [9]): 6.96
4 | Nc1nsc(=S)n1[C@H]1CC(=O)[C@@H]2OC[C@H]1O2 | – | – | – | – | pIC50 (A2780 [6]): 4.30; pIC50 (A2780 [7]): 4.62; pIC50 (A2780 [8]): 4.82
5 | O=C(CSc1nnc(Nc2ccc(Cl)cc2)s1)N1N=C(c2ccccc2)CC1c1ccc([N+](=O)[O-])cc1 (configuration not stated) | 5.07 | 4.17 | 5.00 | – | pIC50 (A549 [3]): 4.92
6 | CNc1nnc(CCCSc2nnc(SCCCc3nnc(NC)s3)s2)s1 | – | – | – | 65.3 | –
7 | C=CCNc1nnc(SCC(=O)N2N=C(c3ccccc3)CC2c2ccc([N+](=O)[O-])cc2)s1 (configuration not stated) | 5.29 | 4.45 | 5.00 | – | –
8 | c1ccc(Nc2nnc(CCCSc3nnc(CCCSc4nnc(Nc5ccccc5)s4)s3)s2)cc1 | – | – | – | 82.6 | –
